In publication PMC3438169 (PLoS ONE, 2012):
*1 amine or outer side, *2 acyl side, *3 side chain or, on linkers, in order; H or OH if unused. Where a SMILES comes first, the peptide text is derived from it. [ ]: non-standard residue; d: D form. dAla(ψthiazole) = C[C@@H](N[*:1])c1nc(C(=O)[*:2])cs1; Trp(4-OMe) = COc1cccc2[nH]cc(C[C@H](N)C(=O)O)c12; dAbu = CC[C@@H](N)C(=O)O; Dha = C=C(N)C(=O)O; Sar = CNCC(=O)O

How the values were obtained:
P. aeruginosa = assay: Resistant mutant selection, P. aeruginosa; type: cell-based; conditions: P. aeruginosa K767; solid medium containing 128 µg/ml argyrin B
Description: (§1) Resistance frequencies were calculated as the number of CFU (mutants) on drug containing plates divided by the number of CFU plated. Whole genome sequencing was done as described previously. The fusA1 gene from P. aeruginosa was generated for sequencing in two parts, using primer pairs PAEFF1/PAEFR1: […]/[…] and EFF2/EFR1: […]/[…]. The fusA1 gene from B. multivorans was generated as a single band using BCEFGF1/BCEFGR1: […]/[…]. Nucleotide sequencing of the products was done by Agencourt (Beverly MA).

B. multivorans = assay: Resistant mutant selection, B. multivorans; type: cell-based; conditions: Mueller-Hinton agar, 4 or 16 µg/ml argyrin B
Description: as §1

yeast (BY4741, BYΔ8) = assay: Yeast susceptibility determination, wild-type and BYΔ8; type: cell-based, S. cerevisiae; conditions: for Activity against yeast (in words): rich medium with glucose
Description: Yeast strains used in this study are BY4741 [32] and strain BYΔ8, derived from BY4741 but deleted for eight genes involved in drug resistance (efflux pumps: snq2, pdr5, yor1; transcription factors: pdr1, pdr2, pdr3, yap1, yrm1). […] Starting OD600 was 0.1, total volume per well 120 µl. Plates were incubated at 30°C with 770 RPM orbital shaking.

[1] = test system: Cox4-GFP labeled mitochondria; assay: Microscopy of mitochondrial morphology (Cox4-GFP); type: cell-based, S. cerevisiae; conditions: 3× IC30 (10 µM on YPEG), 30 minutes, ethanol/glycerol
Description: BY4741 cells containing a genomic COX4-GFP fusion where grown to mid-log phase in glucose and ethanol/glycerol media and incubated with the corresponding concentrations of compound for 30 minutes. Aliquots where spotted on microscopy slides and directly imaged on a Zeiss Axiovert 200Mot microscope equipped with a AxioCam MRm digital camera using the Plan-Neofluar 100×, 1.3 oil PH3 objective (Carl Zeiss, Feldbach, Switzerland). A z-stack consisting of 3 images spaced by […] in the filterset 38 (eGFP) channel and a phase-contrast image where acquired. False colors where applied to the GFP images (green) and phase contrast (blue) and the images merged into one plane and scaled to 8-bit. Representative, individual cells where selected and assembled into a panel using Adobe Photoshop (Adobe Systems Inc.).

HCT116 = assay: Cell viability (CellTiter-Glo), HCT116 with siRNA or mEF-G1 variants; type: cell-based, human; conditions: 7 days
Description: HCT116 (ATCC, CCL-247) and RKO (ATCC, CRL-2577) cell lines were maintained in a humidified incubator at 37°C and 5% CO2 in RPMI1640 supplemented with 10% FBS. Cell viability was determined using the CellTiter-Glo luminescent cell viability assay (Promega). […] Subsequently, 40 µl of CellTiter-Glo reagent was added to each well and luminescence recorded on an Envision plate reader (Perkin Elmer). Each treatment condition was tested in triplicate and compared to an equivalent volume of DMSO as control.
Non-targeting (NT) or GFM1 siRNA pools were obtained from Dharmacon (ON-TARGETplus SMART pool D-001810 and L-013685). HCT116 and RKO cells were reverse transfected in 6-well plates using RNAiMax (Invitrogen) and 25 nM siRNA. After 2 days, cells were harvested by trypsinization and re-plated into 6-well plates for western blot analysis or into 384-well plates for compound treatments and cell viability determination using CellTiter-Glo as described above.
The human GFM1 cDNA (encoding mEF-G1, Table 2) was mutagenized in pENTR221 (Invitrogen) using QuikChangeII XL site-directed mutagenesis (Stratagene). The following point mutations were introduced: C1355T (encoding S452L), C1481T (encoding S494F) and T2078A (encoding L693Q). The GFM1 cDNAs were then subcloned into the mammalian expression vector pLenti4/TO/V5 using LR clonase II (Invitrogen) and sequence-verified. The pLenti4 constructs were then co-transfected with a lentiviral plasmid mix (encoding LP1, LP2 and VSV-G) into 293T cells, and viral particles were harvested after 72 h and used to infect HCT116 and RKO cells. Stable cell lines were generated by selection with 400 µg/ml Zeocin and plated into 6-well plates for western blot analysis or into 384-well plates for compound treatments and cell viability determination using CellTiter-Glo as described above.

[2] = test system: recombinant human mEF-G1 WT; assay: Biacore binding, human mEF-G1 WT; conditions: 10, 20, 40 µM, HBS-P+ pH 7.4, 4% DMSO
Text: GFM1 encoding the active site of EF-G1 (residues 36–751) was PCR amplified from pDONR221 constructs using primers (GGGGACAAGTTTGTACAAAAAAGCAGGCTTAATGTCTTCATCAGGGGTGATT, GGGGACCACTTTGTACAAGAAAGCTGGGTATTAGTTCTTGGCTTTTCC). P. aeroginosa fusA1 encoding full-length EF-G was PCR amplified from pET28a-PaEFG-Nhis using primers (GGGGACCACTTTGTACAAGAAAGCTGGGTATTATCAACCTTGTTTTTT, GGGGACAAGTTTGTACAAAAAAGCAGGCTTAATGGCCCGTACTACACCC). Purified PCR products were cloned into the pDONR221 vector using Gateway cloning and BP Clonase II (Invitrogen), shuttled into an E.coli protein expression vector for N-terminal tagging (Avitag-His6 vector) using LR Clonase II (Invitrogen), and verified by sequencing. Avitag-His6-hEF-G1 and Avitag-His6-PaEF-G constructs were transformed into BL21-AI cells (Invitrogen) and isolated single colonies were used to inoculate 5 ml cultures which were grown overnight at 37°C with shaking. […]. Briefly, protein was captured on column using binding buffer (50 mM Tris; pH 7.5, 300 mM NaCl, 20 mM imidazole, 10% glycerol), washed extensively with washing buffer (50 mM Tris; pH 7.5, 500 mM NaCl, 30 mM imidazole, 10% glycerol), and then eluted with elution buffer (50 mM Tris; pH 7.5, 500 mM NaCl, 250 mM imidazole, 10% glycerol). […]

Compound: C=C1NC(=O)CN(C)C(=O)CNC(=O)[C@H](Cc2c[nH]c3cccc(OC)c23)NC(=O)[C@H](Cc2c[nH]c3ccccc23)NC(=O)c2csc(n2)[C@@H](C)NC(=O)[C@@H](CC)NC1=O [argyrin B] (cyclo([dAbu][dAla(ψthiazole)]W[Trp(4-OMe)]G[Sar][Dha]))
- frequency of mutants with decreased susceptibility (P. aeruginosa): circa 5×10^−8
- frequency of argyrin B resistant mutants (B. multivorans): 10^−9–10^−8
- Activity against yeast (in words) (yeast (BY4741, BYΔ8); BYΔ8 (strain CMB970, eight genes involved in efflux deleted)): inactive
- Inhibitory activity on glucose-grown yeast (in words) (yeast (BY4741, BYΔ8); glucose-grown yeast): lack of inhibitory activity
- Activity against yeast (in words) (yeast (BY4741, BYΔ8); wild-type yeast (BY4741)): inactive
- Mitochondrial morphology (in words) [1]: mitochondrial morphology defects (fragmentation)
- Lowering of IC50 by knock down of mEF-G1 (HCT116; HCT116, GFM1 siRNA, CellTiter Glo): circa 9.6 fold
- Decrease of susceptibility on expression of mEF-G1 L693Q (HCT116; HCT116, mEF-G1 L693Q): 4.7 fold
- Sensitivity change on expression of mEF-G1 S452L and S494F (in words) (HCT116; HCT116, mEF-G1 S452L and S494F): only marginal effects
- Sensitivity change on overexpression of mEF-G1 WT (in words) (HCT116; HCT116, mEF-G1 WT stable overexpression): did not alter the argyrin B-sensitivity
- Binding to human mEF-G1 (in words) [2]: still bound
